Test results from ChEMBL document CHEMBL1149083, “CoMFA and CoMSIA 3D-QSAR studies on S(6)-(4-nitrobenzyl)mercaptopurine riboside (NBMPR) analogs as inhibitors of human equilibrative nucleoside transporter 1 (hENT1)” (Bioorg Med Chem Lett, 2009).

Target: T1, Equilibrative nucleoside transporter 1 (Homo sapiens, UniProt Q99808)
T1 sequence (Q99808 whole entry): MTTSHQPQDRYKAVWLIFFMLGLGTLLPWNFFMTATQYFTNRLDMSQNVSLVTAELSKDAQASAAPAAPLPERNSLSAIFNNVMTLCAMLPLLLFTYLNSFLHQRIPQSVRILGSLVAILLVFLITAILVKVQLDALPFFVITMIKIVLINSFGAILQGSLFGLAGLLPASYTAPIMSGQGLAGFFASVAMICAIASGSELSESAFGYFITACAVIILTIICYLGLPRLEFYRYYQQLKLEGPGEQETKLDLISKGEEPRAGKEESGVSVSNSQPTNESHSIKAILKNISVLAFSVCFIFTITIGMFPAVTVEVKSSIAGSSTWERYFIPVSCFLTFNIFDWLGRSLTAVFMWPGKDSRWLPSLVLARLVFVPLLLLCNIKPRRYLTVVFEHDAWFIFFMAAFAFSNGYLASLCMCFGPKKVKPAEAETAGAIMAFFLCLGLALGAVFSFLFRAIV
Assay: Inhibition of human ENT1

SMILES	Ki [nM]
OC[C@H]1O[C@@H](n2cnc3c(SCc4ccccc4Cl)ncnc32)[C@H](O)[C@@H]1O	117
O=[N+]([O-])c1ccccc1CSc1ncnc2c1ncn2[C@@H]1O[C@H](CO)[C@@H](O)[C@H]1O	115
N#Cc1ccccc1CSc1ncnc2c1ncn2[C@@H]1O[C@H](CO)[C@@H](O)[C@H]1O	38.9
N#Cc1cccc(CSc2ncnc3c2ncn3[C@@H]2O[C@H](CO)[C@@H](O)[C@H]2O)c1	36.3
OC[C@H]1O[C@@H](n2cnc3c(SCc4ccccc4Br)ncnc32)[C@H](O)[C@@H]1O	151
OC[C@H]1O[C@@H](n2cnc3c(SCc4cccc(Br)c4)ncnc32)[C@H](O)[C@@H]1O	20.9
OC[C@H]1O[C@@H](n2cnc3c(SCc4ccccc4I)ncnc32)[C@H](O)[C@@H]1O	19.5
OC[C@H]1O[C@@H](n2cnc3c(SCc4cccc(F)c4)ncnc32)[C@H](O)[C@@H]1O	12.9
Cc1ccccc1CSc1ncnc2c1ncn2[C@@H]1O[C@H](CO)[C@@H](O)[C@H]1O	67.6
OC[C@H]1O[C@@H](n2cnc3c(SCc4cccc(C(F)(F)F)c4)ncnc32)[C@H](O)[C@@H]1O	19.1
OC[C@H]1O[C@@H](n2cnc3c(SCc4c(F)cccc4Cl)ncnc32)[C@H](O)[C@@H]1O	87.1
OC[C@H]1O[C@@H](n2cnc3c(SCc4ccccc4F)ncnc32)[C@H](O)[C@@H]1O	24
Cc1cc(C)c(CSc2ncnc3c2ncn3[C@@H]2O[C@H](CO)[C@@H](O)[C@H]2O)c(C)c1	1910
O=[N+]([O-])c1cccc(CSc2ncnc3c2ncn3[C@@H]2O[C@H](CO)[C@@H](O)[C@H]2O)c1	1.78

Next, values leading:

Ki [nM]	SMILES
10000	CC(C)(C)c1ccc(CSc2ncnc3c2ncn3[C@@H]2O[C@H](CO)[C@@H](O)[C@H]2O)cc1
46.8	COC(=O)c1ccc(CSc2ncnc3c2ncn3[C@@H]2O[C@H](CO)[C@@H](O)[C@H]2O)cc1
15.1	Cc1ccc(CSc2ncnc3c2ncn3[C@@H]2O[C@H](CO)[C@@H](O)[C@H]2O)cc1
11.5	OC[C@H]1O[C@@H](n2cnc3c(SCc4ccc(Br)cc4)ncnc32)[C@H](O)[C@@H]1O
7.08	OC[C@H]1O[C@@H](n2cnc3c(SCc4ccc(OC(F)(F)F)cc4)ncnc32)[C@H](O)[C@@H]1O
18.2	OC[C@H]1O[C@@H](n2cnc3c(SCc4cccc(Cl)c4)ncnc32)[C@H](O)[C@@H]1O
3.8	OC[C@H]1O[C@@H](n2cnc3c(SCc4ccc(I)cc4)ncnc32)[C@H](O)[C@@H]1O
12.6	OC[C@H]1O[C@@H](n2cnc3c(SCc4ccc(Cl)c(Cl)c4)ncnc32)[C@H](O)[C@@H]1O
16.2	Cc1cccc(CSc2ncnc3c2ncn3[C@@H]2O[C@H](CO)[C@@H](O)[C@H]2O)c1
14.8	OC[C@H]1O[C@@H](n2cnc3c(SCc4ccc(Cl)cc4)ncnc32)[C@H](O)[C@@H]1O
34.7	COc1ccc(CSc2ncnc3c2ncn3[C@@H]2O[C@H](CO)[C@@H](O)[C@H]2O)cc1
4.37	OC[C@H]1O[C@@H](n2cnc3c(SCc4ccc(Cl)cc4Cl)ncnc32)[C@H](O)[C@@H]1O
4.57	N#Cc1ccc(CSc2ncnc3c2ncn3[C@@H]2O[C@H](CO)[C@@H](O)[C@H]2O)cc1
20	OC[C@H]1O[C@@H](n2cnc3c(SCc4ccccc4)ncnc32)[C@H](O)[C@@H]1O [6-BENZYLTHIOINOSINE]
